These are literature values, as cited in paper PMC4424193 (European journal of drug metabolism and pharmacokinetics, 2014).

Like-named read-outs stand apart in the source and are kept apart here.

The target in one series is FAK. The following applies: binding studies; ref Kurenova et al. 2013.
For series [1] the following is noted: rats, single intragastric 50 mg/kg in 2% starch suspension; ref Kaverina (1983).
For series [2] the following is noted: ref Dirikolu (2009); for Cmax: horse serum.
For series [3] the following is noted: man, single oral 50 mg dose, 24 hr urine collections; ref Chung (1994).
For series [4] the following is noted: rat, after 24 hrs; ref Yeh 1990.
The conditions of series [5]: humans, ref Yeh et al. 1986; for Cmax: at 0.5 hrs post-dose.
Where [6] appears, read: CD1 mice, 44.6 mg/kg IP C4 free base, ref Thudium 2011.

The Cmax is the maximum level reached in the sampled fluid or tissue. `CN(C)CCN(Cc1ccc(Cl)cc1)c1ccccn1` [C4, N-[(4-chlorophenyl)-methyl]-N-[2-(dimethylamino)-ethyl]-pyridin-2-amine]: at FAK, the “C4 to FAK dissociation constant (Kd)” value was 0.165 µg/mL. Moreover, in series [1], the Cmax is 370 ng/mL, the T½ was 14.9 h and the “serum concentration at 24 hrs (mean)” value was 160 ± 10 ng/mL. For the same compound, under setting [6], the “plasma Cmax (mean)” value is 820 ng/mL and the “time of peak plasma concentration” value was 0.67 h. Under “mice, 44.6 mg/kg free base IV dose, ref Thudium (2011)”, the T½ was 0.83 ± 0.34 h. The 24 hr concentration (mice, 44.6 mg/kg free base, ref Thudium (2011)) is 0 µg/mL. For the same compound, under “mice, oral vs IP routes of administration, previously determined”, the Bioavailability is recorded as 15.5%. Besides, the Cmax (mouse IV, ref Thudium (2011)) was 820 ng/mL.

The term Tmax denotes the time from dosing to the highest level. As to `COc1ccc(CN(CCN(C)C)c2ccccn2)cc1` [Pyrilamine, pyrilamine], the peak concentration (Cmax) in series [2] (IV 300 mg/horse, at 5 minutes) is 280 ng/mL; in series [2] (oral 300 mg/horse), 36.6 ng/mL. In addition, in series [2] (horse, IV 300 mg/horse), the “half-life (t½)” value was 1.67 h. Also, the “detection in serum at 24 hrs” value in series [2] (horse, either route of administration (IV, oral)) was “not detected”. For the same compound, the Tmax in series [2] (horse, oral 300 mg/horse) is 0.44 h. Also, in series [3], the “parent compound in urine” value is given as “no parent compound was observed in the urine”.

The term t½ denotes the time needed for the level to fall by half in the phase considered. Take `CN(C)CCN(Cc1ccccc1)c1ccccn1` [tripelennamine]: in series [4], the “dose recovered unchanged in urine” value is on record as 2-3%. For the same compound, in series [5] (50 mg intramuscular), the maximum concentration (Cmax) is listed as 105 ng/mL and the t½ is 2.9 ± 0.25 h. Further, in series [5] (100 mg intramuscular), the Cmax is given as 194 ng/mL and the t½ is 4.4 ± 1.3 h.
